These results are taken from patent US20250025451A1, “TREATMENT OF CANCER WITH KDM4 INHIBITORS” (Celgene Corporation, priority 2021, published 2025).

SMILES strings stand for the structures. Converted amounts (≈) assume the structure as drawn. Where two headings read alike, the source gives them in different places.

Assay [1] deals with erythroid hematopoietic progenitor cells derived from human bone marrow. The assay is described as follows: erythroid colony formation of hematopoietic progenitor cells. It is filed as cell-based. Conditions: 336 h, human bone marrow progenitor cells. The procedure: (§1) Compound 1 was evaluated for its effects on proliferation of erythroid and myeloid hematopoietic progenitor cells derived from human bone marrow at […] Technologies Inc. (Vancouver, BC, Canada).
(§2) Cells were thawed rapidly at 37° C. into DNAse I and then diluted in 10 mL of Iscove's Modified Dulbecco's medium containing 2% fetal bovine serum (IMDM+2% FBS) and washed by centrifugation (1200 rpm for 10 minutes at room temperature). The supernatant was discarded and the cell pellet resuspended in a known volume of IMDM+2% FBS. A nucleated cell count (3% glacial acetic acid) and viability assessment (trypan blue exclusive test) were performed.
(§3) Compound 1 and positive control (panobinostat) were diluted in DMSO and tested at concentrations ranging from 0.002 μM to 5 μM in final media. These dilutions provided the appropriate final test concentrations required for the test and control articles ([…], and 0.002 μM).
(§4) Test and control articles were incubated with human bone marrow hematopoietic progenitor cells. After 14 days, cell colonies were assessed.
(§5) To calculate the concentration of 50% and 90% inhibition of colony growth (IC50 and IC90) for each test article, a dose response curve was generated plotting the log of the test article concentration versus the percentage of control colony growth using GraphPad Prism. […] The IC50 and IC90 values for both test and control articles were derived from an interpolation of the curve fit. In cases where the IC50/90 value reported by GraphPad Prism is a value beyond the range of concentrations that were actually tested, if this value is more than 4 times the highest concentration tested, or where GraphPad Prism cannot calculate an IC50/90 value, notations of >5 μM (for test article compound 1) are used.

The subject of assay [2] is myeloid hematopoietic progenitor cells derived from human bone marrow. The assay is described as follows: myeloid colony formation of hematopoietic progenitor cells. In kind it is cell-based. Conditions: 336 h, human bone marrow progenitor cells. As for the experimental part: as §1, §2, §3, §4, §5

In the case of `Cc1[nH]c2ccccc2c1CCNCc1ccc(/C=C/C(=O)NO)cc1` [Panobinostat, reference compound], the IC50 in assay [1] (14 days, read-out: IC50, inhibition of erythroid colony formation) is under 10 nM; in assay [1] (colony growth after 14 days, read-out: Erythroid IC50), 6.4 ng/mL; in assay [2] (14 days, read-out: IC50, inhibition of myeloid colony formation), under 10 nM; in assay [2] (colony growth after 14 days, read-out: Myeloid IC50), 7.4 ng/mL. Also, the results for the IC90 in assay [1] (colony growth after 14 days) and in assay [2] (colony growth after 14 days) were 7.5 ng/mL (≈ 0.0215 µM) and 8.1 ng/mL (≈ 0.0232 µM), respectively.
